Results as given in patent US12186309B2, “RNA virus inhibitor compounds and uses thereof” (The Governors of the University of Alberta, priority 2021, dated 2025).
Like-named read-outs stand apart in the source and are kept apart here.

Key:
SARS-CoV-2 3CLP = SARS-CoV-2 3CLP (Severe acute respiratory syndrome coronavirus 2 (2019-nCoV) (SARS-CoV-2), UniProt P0DTD1); test: SARS-CoV-2 3CLP inhibition FRET assay; type: biochemical; conditions: 80 nM SARS-CoV-2 3CLP, 100 μM FRET substrate, pH 7.8, 37° C., 10 min preincubation; read-out: 3CL Protease IC50
SARS-CoV-2 = SARS-CoV-2 plaque reduction assay in Vero E6 cells; type: cell-based; conditions: read-out: SARS-CoV-2 Antiviral EC50
in vitro = type: cell-based
Description: Cell viability was measured using the CellTiter-Glo luminescent cell viability assay (Promega). Separately A549 (human lung epithelial) cells and VeroE6 cells were seeded at 5×10^3 cells/well in 96-well plates and incubated overnight before treatment. Compounds were solubilized in DMSO and added to cells in an eight-point four-fold serial dilution (200 μM to 0.0122 μM). Cells were incubated in the presence of compounds for 24 hours before addition of the luminescence substrate and measurement of ATP activity according to manufacturer's instructions. The percentage of viable cells was calculated relative to cells treated with solvent alone (0.5% DMSO).

[1] = Severe acute respiratory syndrome coronavirus 2, Vero C1008, Vero E6 cells, SARS-CoV-2/CANADA/VIDO 01/2020, MOI 0.0001 pfu/cell, plaques counted after 48 h
[2] = Severe acute respiratory syndrome coronavirus 2, Vero C1008, 48 h

SMILES | IC50 (SARS-CoV-2 3CLP) | EC50 (SARS-CoV-2; [1]) | CC50 at 24 h (in vitro; African green monkey) | CC50 at 24 h (in vitro; human) | EC50 (SARS-CoV-2; [2])
CC(C)C[C@@H](C(=O)N[C@H](C#N)C[C@@H]1CCCNC1=O)N1C(=O)c2ccccc2C1=O [Compound 1, (2S)—N-{(1S)-1-cyano-2-[(3S)-2-oxopiperidin-3-yl]ethyl}-2-(1,3-dioxo-1,3-dihydro-2H-isoindol-2-yl)-4-methylpentanamide] | 8.5 µM | > 10 µM | – | – | –
CC(C)C[C@@H](C(=O)N[C@H](C#N)C[C@@H]1CCCNC1=O)N1C(=O)CC(C)(C)C1=O [Compound 2, (2S)—N-{(1S)-1-cyano-2-[(3S)-2-oxopiperidin-3-yl]ethyl}-2-(3,3-dimethyl-2,5-dioxopyrrolidin-1-yl)-4-methylpentanamide] | 10.7 µM | > 10 µM | – | – | –
CC(C)C[C@@H](C(=O)N[C@H](C#N)C[C@@H]1CCCNC1=O)N1C(=O)C[C@H](c2ccccc2)C1=O [Compound 5, (2S)—N-{(1S)-1-cyano-2-[(3S)-2-oxopiperidin-3-yl]ethyl}-2-[(3R)-2,5-dioxo-3-phenylpyrrolidin-1-yl]-4-methylpentanamide] | 6.9 µM | > 10 µM | – | – | –
CC(C)C[C@@H](C(=O)N[C@H](C#N)C[C@@H]1CCCNC1=O)n1cccc(NC(=O)OC(C)(C)C)c1=O [Compound 7, tert-butyl {1-[(2S)-1-({(1S)-1-cyano-2-[(3S)-2-oxopiperidin-3-yl]ethyl}amino)-4-methyl-1-oxopentan-2-yl]-2-oxo-1,2-dihydropyridin-3-yl}carbamate] | – | < 10 µM | – | – | –
CC(C)(C)[C@H](NC(=O)C(F)F)C(=O)N1C[C@H]2[C@@H]([C@H]1C(=O)N[C@H](C#N)C[C@@H]1CCCNC1=O)C2(C)C [Compound 20, (1R,2S,5S)—N-{(1S)-1-cyano-2-[(3S)-2-oxopiperidin-3-yl]ethyl}-3-[N-(difluoroacetyl)-3-methyl-L-valyl]-6,6-dimethyl-3-azabicyclo[3.1.0]hexane-2-carboxamide] | – | – | > 200 µM | > 200 µM | < 5 µM
[2H]C1([2H])CC[C@@H](C[C@@H](C#N)NC(=O)[C@@H]2[C@@H]3[C@H](CN2C(=O)[C@@H](NC(=O)C(F)F)C(C)(C)C)C3(C)C)C(=O)N1 [Compound 24, (1R,2S,5S)—N-{(1S)-1-cyano-2-[(3S)-2-oxo(6,6-^2H2)piperidin-3-yl]ethyl}-3-[N-(difluoroacetyl)-3-methyl-L-valyl]-6,6-dimethyl-3-azabicyclo[3.1.0]hexane-2-carboxamide] | – | – | > 200 µM | > 200 µM | < 5 µM
